# Reference: US12605358B2, “Composition for preventing or treating nervous system diseases comprising compound that inhibits mTOR signaling pathway as active ingredient” (ALIAD BIOPHARMA, priority 2021, dated 2026)
# What was measured:
# 5xFAD transgenic mice [1] = assay: Morris water maze test; type: in vivo; conditions: 5, 10 and 20 mg/kg groups; similar to the normal group
# Description: 5xFAD animals were administered with HN-1703 at three doses for 14 days to male heterozygotes aged 6 months (all born within 3 days). The behaviors of mice were measured in a dark cycle in which the mice were active while alternating light and dark in a 12-hour cycle in a breeding room chamber, and the mice were freely accessible to food and water and bred in compliance with experimental animal ethical guidelines of Kyung Hee University. […] Behavioral measures were measured in Y-maze, Morris Water Maze, and Passive Avoidance test for 18 days in sequence.
# A Morris water maze test designed by Richard Morris to test spatial memory was performed on a round and rust-free pool with a white inner-surface (diameter 120 cm; height 60 cm). […] On the first day, the mice were trained in free swimming for 1 minute without a platform foothold, and from the second day, while the mice were trained for 1 minute to find the platform using a spatial clue above the water tank by dissolving dye in water so as not to see the foothold, 6 mice or more were set to a group and put into a quadrant once after taking a sufficient rest, and measured by a video camera. […] The captured video pictures were analyzed with a video tracking system (Ethovision water maze program, Noldus Information Technology, Wageningen, Netherlands). […]
# [2] = tested on: primary cultured cerebral neurons; assay: Neuron protective efficacy against Aβ toxicity (DAPI cell count); type: cell-based, rat; conditions: Aβ 0.5 or 1 μM, HN-1703 0.1 or 0.5 μM, 12 or 24 hours; Aβ alone reduced viability by 50% or more; FIGS. 5A, 5B
# Description: Primary cultured neurons from the cerebral cortex of rat embryos (E16) were treated with […] or 1 μM Aβ and 0.1 μM or 0.5 μM HN-1703 for 12 or 24 hours. Cell viability was evaluated by measuring the number of cells stained with DAPI.
# Aβ has strong toxicity to neurons, and the death of neurons caused by Aβ accumulated in the brain is a major cause of Alzheimer's disease. To evaluate whether HN-1703 for inhibiting the mTOR signaling pathway and promoting autophagy may directly protect neurons from Aβ toxicity, an inhibitory effect of HN-1703 on Aβ-induced apoptosis of primary cultured cerebral neurons was evaluated, and the number of live cells stained with DAPI was quantified and shown in FIGS. 5A and 5B.
# 5xFAD transgenic mice [3] = assay: Autophagy activation in neurons and microglia (Iba-1/MAP2/LC3 staining); type: in vivo; conditions: FIG. 16
# Description: 5xFAD animals were administered with HN-1703 at three doses for 14 days to male heterozygotes aged 6 months (all born within 3 days). The behaviors of mice were measured in a dark cycle in which the mice were active while alternating light and dark in a 12-hour cycle in a breeding room chamber, and the mice were freely accessible to food and water and bred in compliance with experimental animal ethical guidelines of Kyung Hee University. In each group, the HN-1703 was intraperitoneally injected at the same time once a day in a volume of 100 μl to 12 mice in a normal group (wild type littermate), 9 5xFAD mice in a vehicle (DMSO administration), 8 5xFAD mice in a 5 mg/kg administered group, 9 5xFAD mice in a 10 mg/kg administered group, and 9 5xFAD mice in a 20 mg/kg administered group. […] In a behavioral measurement room, humidity (40 to 60%) and temperature (22 to 26° C.) were maintained, and reflected light was maintained to avoid sound and light effects. Behavioral measures were measured in Y-maze, Morris Water Maze, and Passive Avoidance test for 18 days in sequence.
# A brain slice immunostaining method was modified and used as described in Heo H et al. (J Ethnopharmacol, 2009). Mice were transcardially perfused with 4% PFA. After being immersed and fixed in 4% PFA for 4 hours, the brain tissue was unfrozen in 30% sucrose, frozen in an optimal cutting temperature (OCT) mixture, and stored at −80° C. Brain tissue slices were sectioned in a coronal direction at a thickness of 35 μm. The brain tissue slices were immersed in a storage solution (30% glycerol, 30% ethylene glycol, PBS) and stored at 4° C. The stored brain slices were permeabilized in 0.5% Triton X-100 for 20 minutes and shaken in 2 N HCl for 30 minutes at 37° C. Then, the brain slices were blocked in a free-floating state for 2 hours in 15% standard serum, 3% bovine serum albumin (BSA, bio-WORLD, Dublin, OH, USA) and 0.1% Triton X-100. The slices were shaken with a first antibody for 16 hours at 4° C. Thereafter, a second antibody complementary to the first antibody was attached at room temperature (22±1° C.) for 45 minutes. Then, the nuclei were washed with physiological saline (PBS) containing 1 μg/ml PI (propidiumiodide, Sigma) or DAPI (1:4000), and then placed on a slide glass and sealed using an aqueous mount, and observed under a confocal scanning microscope for tissue observation (LSM 810 Carl Zeiss, Oberkochen, Germany). […]
# FIG. 16 illustrates confocal scanning micrographs of the hippocampal dentate gyrus region after triple staining with an Iba-1 antibody, an MAP2 antibody, and an LC3 antibody, and quantifying the number of LC3+/MAP2+ cells, the number of LC3+/Iba-1+ cells, the number of MAP2+ cells, and the number of Iba-1+ cells.
structure (smiles),measurement,setting,value
"COc1cc(OC)c2c(=O)c3cc4c(cc3oc2c1)OCO4 [HN-1703, 7,9-dimethoxy-10H-[1,3]dioxolo[4,5-b]xanthen-10-one]",water maze latency time after 4 days of training,5xFAD transgenic mice [1],about 35 seconds
same,cell viability (number of live cells stained with DAPI) under Aβ toxicity,[2],viability was significantly increased
same,"activated microglia, Iba-1+ cells","5xFAD transgenic mice [3]; 5 to 20 mg/kg, compared to the 5xFAD-DMSO control group",greatly reduced
same,number of neurons double-stained with MAP2 and LC3-II,5xFAD transgenic mice [3],increased in a dose-dependent manner
same,number of MAP2+ neurons in the dentate gyrus,5xFAD transgenic mice [3]; approaches the WT normal group,increased in a dose-dependent manner
same,autophagy-activated microglia double-stained with LC3-II,"5xFAD transgenic mice [3]; compared to the 5xFAD-DMSO control group, dose-dependent",increased twice or more
